According to ChEMBL document CHEMBL4007448, “The derivatives of Pulsatilla saponin A, a bioactive compound from Pulsatilla chinensis: Their synthesis, cytotoxicity, haemolytic toxicity and mechanism of action” (Eur J Med Chem, 2017):
Active and inactive are the calls of the source. No cut-off for these calls is given here.

Assays:
[1] = Hemolytic activity against New Zealand rabbit erythrocytes after 60 mins; format: ADME, cell-based, Oryctolagus cuniculus, Erythrocyte; conditions: read-out: HD50
A549 = assay: Cytotoxicity against human A549 cells assessed as reduction in cell viability after 48 hrs by MTT assay; format: functional, cell-based; conditions: A549, 48 h
MDA-MB-231 [2] = assay: Cytotoxicity against human MDA-MB-231 cells assessed as reduction in cell viability after 48 hrs by MTT assay; format: functional, cell-based; conditions: MDA-MB-231, 48 h
SMMC-7721 = assay: Cytotoxicity against human SMMC7721 cells assessed as reduction in cell viability after 48 hrs by MTT assay; format: functional, cell-based; conditions: SMMC-7721, 48 h
MCF7 = assay: Cytotoxicity against human MCF7 cells assessed as reduction in cell viability after 48 hrs by MTT assay; format: functional, cell-based; conditions: MCF7, 48 h
KB = assay: Cytotoxicity against human KB cells assessed as reduction in cell viability after 48 hrs by MTT assay; format: functional, cell-based
BGC-823 = assay: Cytotoxicity against human BGC823 cells assessed as reduction in cell viability after 48 hrs by MTT assay; format: functional, cell-based; conditions: BGC-823, 48 h
[3] = Cytotoxicity against human KBVIN cells assessed as reduction in cell viability after 48 hrs by MTT assay; format: functional, cell-based
Mus musculus [4] = assay: Toxicity in mouse xenografted with […] assessed as death at 60 mg/kg/day, ip for 14 days; format: organism-based; conditions: in vivo, 336 h
H22 = assay: Antitumor activity against […] xenografted in mouse assessed as tumor growth inhibition at 60 mg/kg/day, ip for 14 days relative to control; format: functional; conditions: 336 h, read-out: TGI
Blood = assay: Drug metabolism in mouse blood assessed as Pulsatilla saponin A formation at 60 mg/kg/day, ip for 14 days; format: ADME, organism-based; conditions: in vivo, 336 h
Mus musculus [5] = assay: Toxicity in mouse xenografted with […] assessed as hematuria at 60 mg/kg/day, ip for 14 days; format: organism-based; conditions: in vivo, 336 h
MDA-MB-231 [6] = assay: Cell cycle arrest in human MDA-MB-231 cells assessed as accumulation at G1 phase at 5.5 uM after 24 hrs by propidium iodide staining based flow cytometry; format: functional

Row | SMILES | HC50 at 1 h [1] | IC50 (A549) | IC50 (SMMC-7721) | IC50 (BGC-823) | also measured
1 | C[C@@H]1O[C@@H](O[C@H]2[C@H](O[C@H]3CC[C@@]4(C)[C@@H](CC[C@]5(C)[C@@H]4CC=C4[C@@H]6CC(C)(C)CC[C@]6(C(=O)O)CC[C@]45C)[C@]3(C)CO)OC[C@H](O)[C@@H]2O)[C@H](O)[C@@H](O)[C@H]1O | 3.86 µM | 18.6 to 20.9 µM | 12.2 µM | 14.6 µM | IC50 (MDA-MB-231 [2]): 17.8 µM; IC50 (MCF7): 22.2 µM; IC50 (KB): 20.7 µM; IC50 [3]: 19.6 µM
2 | C[C@H]1O[C@@H](O[C@H]2[C@H](O[C@H]3CC[C@@]4(C)[C@@H](CC[C@]5(C)[C@@H]4CC=C4[C@@H]6CC(C)(C)CC[C@]6(C(=O)OCCO[N+](=O)[O-])CC[C@]45C)[C@]3(C)CO)OC[C@H](O)[C@@H]2O)[C@H](O)[C@H](O)[C@H]1O | 16.2 µM | 80.2 µM | 17.8 µM | 33.1 µM | –
3 | C[C@H]1O[C@@H](O[C@H]2[C@H](O[C@H]3CC[C@@]4(C)[C@@H](CC[C@]5(C)[C@@H]4CC(=O)[C@]46OC(=O)[C@@]7(CCC(C)(C)C[C@H]74)CC[C@@]56C)[C@]3(C)CO)OC[C@H](O)[C@@H]2O)[C@H](O)[C@H](O)[C@H]1O | > 500 µM | > 100 µM | 70.6 µM | 80.3 µM | –
4 | C[C@H]1O[C@@H](O[C@H]2[C@H](O[C@H]3CC[C@@]4(C)[C@@H](CC[C@]5(C)[C@@H]4CC=C4[C@@H]6CC(C)(C)CC[C@]6(C(=O)OCCCCCCO[N+](=O)[O-])CC[C@]45C)[C@]3(C)CO)OC[C@H](O)[C@@H]2O)[C@H](O)[C@H](O)[C@H]1O | 3.79 µM | 65.2 µM | 15.4 µM | 33.1 µM | –
5 | C[C@H]1O[C@@H](O[C@H]2[C@H](O[C@H]3CC[C@@]4(C)[C@@H](CC[C@]5(C)[C@@H]4CC=C4[C@@H]6CC(C)(C)CC[C@]6(C(=O)NCC(=O)NCC(=O)O)CC[C@]45C)[C@]3(C)CO)OC[C@H](O)[C@@H]2O)[C@H](O)[C@H](O)[C@H]1O | > 500 µM | > 100 µM | 57.8 µM | 76.3 µM | –
6 | C[C@@H]1O[C@@H](O[C@H]2[C@H](O[C@H]3CC[C@@]4(C)[C@@H](CC[C@]5(C)[C@@H]4CC=C4[C@@H]6CC(C)(C)CC[C@]6(C(=O)NCC(=O)O)CC[C@]45C)[C@]3(C)CO)OC[C@H](O)[C@@H]2O)[C@H](O)[C@@H](O)[C@H]1O | – | – | – | – | Activity (Mus musculus [4]): Non-Toxic; inhibition in vivo at 60 mg/kg/day (H22): 35.6%; Drug metabolism (Blood): Metabolite_Notdetected; Activity (Mus musculus [5]): Non-Toxic
7 | C[C@H]1O[C@@H](O[C@H]2[C@H](O[C@H]3CC[C@@]4(C)[C@@H](CC[C@]5(C)[C@@H]4C(=O)C=C4[C@@H]6CC(C)(C)CC[C@]6(C(=O)NCC(=O)O)CC[C@]45C)[C@]3(C)CO)OC[C@H](O)[C@@H]2O)[C@H](O)[C@H](O)[C@H]1O | 461 µM | > 100 µM | 46.7 µM | 93.7 µM | –
8 | C[C@H]1O[C@@H](O[C@H]2[C@H](O[C@H]3CC[C@@]4(C)[C@@H](CC[C@]5(C)[C@@H]4CC=C4[C@@H]6CC(C)(C)CC[C@]6(C(=O)NCCCCC(=O)O)CC[C@]45C)[C@]3(C)CO)OC[C@H](O)[C@@H]2O)[C@H](O)[C@H](O)[C@H]1O | 228 µM | > 100 µM | 26.8 µM | 67.8 µM | –
9 | CC1(C)CC[C@]2(C(=O)N3CCN(CCC(=O)O)CC3)CC[C@]3(C)C(=CC[C@@H]4[C@@]5(C)CC[C@H](O)[C@@](C)(CO)[C@@H]5CC[C@]43C)[C@@H]2C1 | > 500 µM | 31.5 µM | – | – | IC50 (MDA-MB-231 [2]): 32.9 µM; IC50 (MCF7): > 40 µM; IC50 (KB): 15 µM; IC50 [3]: > 40 µM
10 | C[C@H]1O[C@@H](O[C@H]2[C@H](O[C@H]3CC[C@@]4(C)[C@@H](CC[C@]5(C)[C@@H]4C/C(=N/O)[C@@H]4[C@@H]6CC(C)(C)CC[C@]6(C(=O)O)CC[C@]45C)[C@]3(C)CO)OC[C@H](O)[C@@H]2O)[C@H](O)[C@H](O)[C@H]1O | > 500 µM | > 100 µM | 69.4 µM | 95.6 µM | –
11 | C[C@H]1O[C@@H](O[C@H]2[C@H](O[C@H]3CC[C@@]4(C)[C@@H](CC[C@]5(C)[C@@H]4CC(O)[C@]46OC(=O)[C@@]7(CCC(C)(C)C[C@H]74)CC[C@@]56C)[C@]3(C)CO)OC[C@H](O)[C@@H]2O)[C@H](O)[C@H](O)[C@H]1O (stereo partly drawn) | 77.7 µM | > 100 µM | 56.6 µM | 81.9 µM | –
12 | C[C@H]1O[C@@H](O[C@H]2[C@H](O[C@H]3CC[C@@]4(C)[C@@H](CC[C@]5(C)[C@@H]4CC=C4[C@@H]6CC(C)(C)CC[C@]6(C(=O)NCCCC(=O)O)CC[C@]45C)[C@]3(C)CO)OC[C@H](O)[C@@H]2O)[C@H](O)[C@H](O)[C@H]1O | 313 µM | 98.7 µM | 27.3 µM | 70.2 µM | –
13 | C[C@H]1O[C@@H](O[C@H]2[C@H](O[C@H]3CC[C@@]4(C)[C@@H](CC[C@]5(C)[C@@H]4C(=O)C=C4[C@@H]6CC(C)(C)CC[C@]6(C(=O)O)CC[C@]45C)[C@]3(C)CO)OC[C@H](O)[C@@H]2O)[C@H](O)[C@H](O)[C@H]1O | > 500 µM | > 100 µM | 58.8 µM | 82.6 µM | –
14 | C[C@H]1O[C@@H](O[C@H]2[C@H](O[C@H]3CC[C@@]4(C)[C@@H](CC[C@]5(C)[C@@H]4CC(=O)[C@@H]4[C@@H]6CC(C)(C)CC[C@]6(C(=O)O)CC[C@]45C)[C@]3(C)CO)OC[C@H](O)[C@@H]2O)[C@H](O)[C@H](O)[C@H]1O | 190 µM | 91 µM | 53.8 µM | 77.2 µM | –
15 | CC(=O)OC[C@@]1(C)[C@@H]2CC[C@]3(C)[C@H](CC=C4[C@@H]5CC(C)(C)CC[C@]5(C(=O)O)CC[C@]43C)[C@@]2(C)CC[C@@H]1O[C@@H]1OC[C@H](OC(C)=O)[C@H](OC(C)=O)[C@H]1O[C@@H]1O[C@H](C)[C@H](OC(C)=O)[C@@H](OC(C)=O)[C@H]1OC(C)=O | – | 72.1 µM | 69.9 µM | 74 µM | –
16 | CC(=O)OC[C@@]1(C)[C@@H]2CC[C@]3(C)[C@H](CC(O)[C@]45OC(=O)[C@@]6(CCC(C)(C)C[C@H]64)CC[C@@]35C)[C@@]2(C)CC[C@@H]1O[C@@H]1OC[C@H](OC(C)=O)[C@H](OC(C)=O)[C@H]1O[C@@H]1O[C@H](C)[C@H](OC(C)=O)[C@@H](OC(C)=O)[C@H]1OC(C)=O (stereo partly drawn) | – | > 100 µM | 90.2 µM | > 100 µM | –
17 | CC1(C)CC[C@]2(C(=O)O)CC[C@]3(C)C(=CC[C@@H]4[C@@]5(C)CC[C@H](O)[C@@](C)(CO)[C@@H]5CC[C@]43C)[C@@H]2C1 [HEDERAGENIN] | > 200 µM | 10.2 µM | – | – | IC50 (MDA-MB-231 [2]): 36.6 µM; IC50 (MCF7): 39.4 µM; IC50 (KB): 14.6 µM; IC50 [3]: 27.9 µM
18 | C[C@H]1O[C@@H](O[C@H]2[C@H](O[C@H]3CC[C@@]4(C)[C@@H](CC[C@]5(C)[C@@H]4CC=C4[C@@H]6CC(C)(C)CC[C@]6(C(=O)NCCCCCC(=O)O)CC[C@]45C)[C@]3(C)CO)OC[C@H](O)[C@@H]2O)[C@H](O)[C@H](O)[C@H]1O | 393 µM | > 100 µM | 27.4 µM | 65.5 µM | –
19 | COC(=O)CCN1CCN(C(=O)[C@]23CCC(C)(C)C[C@H]2C2=CC[C@@H]4[C@@]5(C)CC[C@H](OC(C)=O)[C@@](C)(COC(C)=O)[C@@H]5CC[C@@]4(C)[C@]2(C)CC3)CC1 | > 500 µM | 4.69 µM | – | – | IC50 (MDA-MB-231 [2]): 5.54 µM; IC50 (MCF7): 10.7 µM; IC50 (KB): 5.08 µM; Activity (MDA-MB-231 [6]): Active; IC50 [3]: 5.25 µM
20 | C[C@H]1O[C@@H](O[C@H]2[C@H](O[C@H]3CC[C@@]4(C)[C@@H](CC[C@]5(C)[C@@H]4CC(=O)[C@@H]4[C@@H]6CC(C)(C)CC[C@]6(C(=O)NCC(=O)O)CC[C@]45C)[C@]3(C)CO)OC[C@H](O)[C@@H]2O)[C@H](O)[C@H](O)[C@H]1O | 339 µM | 95.8 µM | 44 µM | 86.1 µM | –
21 | C[C@H]1O[C@@H](O[C@H]2[C@H](O[C@H]3CC[C@@]4(C)[C@@H](CC[C@]5(C)[C@@H]4CC=C4[C@@H]6CC(C)(C)CC[C@]6(C(=O)OCCCCO[N+](=O)[O-])CC[C@]45C)[C@]3(C)CO)OC[C@H](O)[C@@H]2O)[C@H](O)[C@H](O)[C@H]1O | 14.9 µM | 84.5 µM | 22.1 µM | 66.5 µM | –
